Experimental data from PubChem BioAssay AID1259407 (Chemical Carcinogenesis Research Information System (CCRIS), 2018).
Activity calls are given as the source filed them. No rule for the calls is given here.

Test system: CCRIS mutagenicity, Ames/micronucleus/aberration tests
Experiment: CCRIS mutagenicity studies
[1] = Test System: AMES SALMONELLA TYPHIMURIUM, Strain/Indicator: TA98, Metabolic Activation: NONE, Method: STANDARD PLATE
[2] = Test System: AMES SALMONELLA TYPHIMURIUM, Strain/Indicator: TA100, Metabolic Activation: NONE, Method: STANDARD PLATE
[3] = Test System: AMES SALMONELLA TYPHIMURIUM, Strain/Indicator: TA1537, Metabolic Activation: NONE, Method: STANDARD PLATE
[4] = Test System: AMES SALMONELLA TYPHIMURIUM, Strain/Indicator: TA1538, Metabolic Activation: NONE, Method: STANDARD PLATE

`CC1=C(/C=C/C(C)=C/C=C/C(C)=C/C=C/C=C(C)/C=C/C=C(C)/C=C/C2=C(C)CCCC2(C)C)C(C)(C)CCC1` was tested, and the mutagenic call (End Point: IN VITRO CHROMOSOMAL ABERRATIONS, Test System: F344 FEMALE RAT HEPATOCYTE, Metabolic Activation: NONE) was “active; positive”, the mutagenic call (End Point: IN VITRO MICRONUCLEUS, Test System: F344 FEMALE RAT HEPATOCYTES, Metabolic Activation: NONE) was “active; positive” and the mutagenic call (Test System: AMES SALMONELLA TYPHIMURIUM, Strain/Indicator: TA97, Metabolic Activation: NONE, Method: PREINCUBATION) was “inactive; negative”. The mutagenic call (Test System: AMES SALMONELLA TYPHIMURIUM, Strain/Indicator: TA97, Metabolic Activation: S-9, Method: PREINCUBATION) was “inactive; negative”, the mutagenic call [1] was “inactive; negative” and the mutagenic call (Test System: AMES SALMONELLA TYPHIMURIUM, Strain/Indicator: TA98, Metabolic Activation: RAT, LIVER, S-9, AROCLOR 1254, Method: STANDARD PLATE) was “inactive; negative”. For the same molecule, the mutagenic call [2] was “inactive; negative”, the mutagenic call (Test System: AMES SALMONELLA TYPHIMURIUM, Strain/Indicator: TA100, Metabolic Activation: RAT, LIVER, S-9, AROCLOR 1254, Method: STANDARD PLATE) was “inactive; negative” and the mutagenic call (Test System: AMES SALMONELLA TYPHIMURIUM, Strain/Indicator: TA102, Metabolic Activation: NONE, Method: PREINCUBATION) was “inactive; negative”. The mutagenic call (Test System: AMES SALMONELLA TYPHIMURIUM, Strain/Indicator: TA102, Metabolic Activation: S-9, Method: PREINCUBATION) was “inactive; negative”.
With `Cc1ccc(S(=O)(=O)NC(=O)Nc2ncc([N+](=O)[O-])s2)cc1` the mutagenic call [1] was “inactive; negative” and the mutagenic call [2] was “inactive; negative”.
`CC(C)NCC(O)c1cc(O)cc(O)c1` (stereo unspecified) was tested, and the mutagenic call (End Point: MORPHOLOGICAL TRANSFORMATION, Test System: SYRIAN HAMSTER EMBRYO CELLS (SHE), Metabolic Activation: NONE) was “inactive; negative”.
`C#CCOCC[n+]1ccccc1/C=N/O` was tested, and the mutagenic call (Test System: AMES SALMONELLA TYPHIMURIUM, Strain/Indicator: TA97, Metabolic Activation: NONE, Method: STANDARD PLATE) was “inactive; negative”, the mutagenic call (Test System: AMES SALMONELLA TYPHIMURIUM, Strain/Indicator: TA97, Metabolic Activation: RAT, LIVER, S-9, Method: STANDARD PLATE) was “inactive; negative” and the mutagenic call [2] was “inactive; negative”. For the same molecule, the mutagenic call (Test System: AMES SALMONELLA TYPHIMURIUM, Strain/Indicator: TA100, Metabolic Activation: RAT, LIVER, S-9, Method: STANDARD PLATE) was “inactive; negative”, the mutagenic call (Test System: AMES SALMONELLA TYPHIMURIUM, Strain/Indicator: TA104, Metabolic Activation: NONE, Method: STANDARD PLATE) was “inactive; negative” and the mutagenic call (Test System: AMES SALMONELLA TYPHIMURIUM, Strain/Indicator: TA104, Metabolic Activation: RAT, LIVER, S-9, Method: STANDARD PLATE) was “inactive; negative”. The mutagenic call [3] was “inactive; negative”, the mutagenic call (Test System: AMES SALMONELLA TYPHIMURIUM, Strain/Indicator: TA1537, Metabolic Activation: RAT, LIVER, S-9, Method: STANDARD PLATE) was “inactive; negative” and the mutagenic call [4] was “inactive; negative”. For the same molecule, the mutagenic call (Test System: AMES SALMONELLA TYPHIMURIUM, Strain/Indicator: TA1538, Metabolic Activation: RAT, LIVER, S-9, Method: STANDARD PLATE) was “inactive; negative”.
For `Nc1ccn([C@@H]2C=C(CO)[C@@H](O)[C@H]2O)c(=O)n1`, the mutagenic call (Test System: AMES SALMONELLA TYPHIMURIUM, Strain/Indicator: TA98, Metabolic Activation: HAMSTER, LIVER, S-9, AROCLOR 1254 (10%), Method: STANDARD PLATE) was “inactive; negative”, the mutagenic call [1] was “inactive; negative” and the mutagenic call (Test System: AMES SALMONELLA TYPHIMURIUM, Strain/Indicator: TA98, Metabolic Activation: RAT, LIVER, S-9, AROCLOR 1254 (10%), Method: STANDARD PLATE) was “inactive; negative”. For the same molecule, the mutagenic call (Test System: AMES SALMONELLA TYPHIMURIUM, Strain/Indicator: TA100, Metabolic Activation: HAMSTER, LIVER, S-9, AROCLOR 1254 (10%), Method: STANDARD PLATE) was “inactive; negative”, the mutagenic call [2] was “inactive; negative” and the mutagenic call (Test System: AMES SALMONELLA TYPHIMURIUM, Strain/Indicator: TA100, Metabolic Activation: RAT, LIVER, S-9, AROCLOR 1254 (10%), Method: STANDARD PLATE) was “inactive; negative”. The mutagenic call (Test System: AMES SALMONELLA TYPHIMURIUM, Strain/Indicator: TA1535, Metabolic Activation: HAMSTER, LIVER, S-9, AROCLOR 1254 (10%), Method: STANDARD PLATE) was “inactive; negative”, the mutagenic call (Test System: AMES SALMONELLA TYPHIMURIUM, Strain/Indicator: TA1535, Metabolic Activation: NONE, Method: STANDARD PLATE) was “inactive; negative” and the mutagenic call (Test System: AMES SALMONELLA TYPHIMURIUM, Strain/Indicator: TA1535, Metabolic Activation: RAT, LIVER, S-9, AROCLOR 1254 (10%), Method: STANDARD PLATE) was “inactive; negative”. For the same molecule, the mutagenic call (Test System: AMES SALMONELLA TYPHIMURIUM, Strain/Indicator: TA1537, Metabolic Activation: HAMSTER, LIVER, S-9, AROCLOR 1254 (10%), Method: STANDARD PLATE) was “inactive; negative”, the mutagenic call [3] was “inactive; negative” and the mutagenic call (Test System: AMES SALMONELLA TYPHIMURIUM, Strain/Indicator: TA1537, Metabolic Activation: RAT, LIVER, S-9, AROCLOR 1254 (10%), Method: STANDARD PLATE) was “inactive; negative”. The mutagenic call (Test System: AMES SALMONELLA TYPHIMURIUM, Strain/Indicator: TA1538, Metabolic Activation: HAMSTER, LIVER, S-9, AROCLOR 1254 (10%), Method: STANDARD PLATE) was “inactive; negative”, the mutagenic call [4] was “inactive; negative” and the mutagenic call (Test System: AMES SALMONELLA TYPHIMURIUM, Strain/Indicator: TA1538, Metabolic Activation: RAT, LIVER, S-9, AROCLOR 1254 (10%), Method: STANDARD PLATE) was “inactive; negative”. The mutagenic call (Test System: MOUSE LYMPHOMA, Strain/Indicator: L5178Y (TK+/TK-), Metabolic Activation: RAT, LIVER, S-9, AROCLOR 1254, Method: SUSPENSION/PLATE) was “active; positive. reevaluation of results: positive” and the mutagenic call (Test System: Mouse lymphoma, Strain/Indicator: L5178Y (tk+/tk-), Metabolic Activation: None, Method: Suspension/plate) was “active; positive”.
For `c1ccc2c(c1)ccc1c3ccccc3sc21`, the mutagenic call (Test System: AMES SALMONELLA TYPHIMURIUM, Strain/Indicator: TA100, Metabolic Activation: RAT, LIVER, S-9, AROCLOR 1254, Method: PREINCUBATION) was “active; positive”.
